Laboratory results published in patent US4959372A, “Anti-hypertensive substituted 2-azabicyclooctane-3-carboxylic acids” (Adir et lie, priority 1987, dated 1990).

Test system: converting enzyme (enzyme for conversion of angiotensin I to angiotensin II)
Assay: Inhibition of the converting enzyme (angiotensin I / angiotensin II pressor response) after oral administration to unanesthetized dogs
Assay type: in vivo
Details: 1 mg/kg
Method: The compound of the invention for which E=H was tested by oral administration on unanesthetized dogs. The arterial blood pressure of the dogs was measured with a pressure gauge ("Statham P23 Db") after catheterization of the aorta via the femoral artery. The recording is carried out with a recording apparatus ("Brush 400"). Angiotensin I and angiotensin II are injected into the animals intravenously at doses of 0.5 and 0.10 γ/kg, respectively. A dose/activity curve is established for each of these hormones. The compound according to the invention for which E=H is then administered orally at a dose of 1 mg/kg. A second dose/activity curve is then established for angiotensin I and for angiotensin II after administration of the test product.

Structure (SMILES): Cl.NCCCC[C@H](N[C@@H](CCc1ccccc1)C(=O)O)C(=O)N1C2CCC(CC2)[C@H]1C(=O)O [compound of the invention for which E=H, (3S)-2-{(S)-N-[(S)-1-carboxy-3-phenylpropyl]lysyl}-3-carboxy-2-azabicyclo[2.2.2]octane hydrochloride]
- percentage inhibition of the converting enzyme (15 minutes after administration): 80%
- percentage inhibition of the converting enzyme (30 minutes after administration): ~100%
- percentage inhibition of the converting enzyme (6 hours after administration): greater than 70%
